Reference: patent US20060069132A1, “Azolecarboxamide herbicides” (priority 2004, published 2006)

Tests used:
rice [1] = assay: Test C flooded paddy test; assay type: in vivo, Oryza sativa
Summary of the method: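 Postemergence sprays applied to plants 2 to 18 cm tall (1- to 4-leaf stage); paddy species grown to 2-leaf stage under flooding. After 12 to 14 days in greenhouse, visual rating versus untreated controls on 0–100 scale (0 no effect, 100 complete control).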

velvetleaf = assay: Test B pre-/postemergence herbicide test; assay type: in vivo, Abutilon theophrasti; conditions: for Velvetleaf plant response rating: postemergence
Summary of the method: (§1)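 Flooded paddy rice and barnyardgrass were treated at the 2-leaf stage; upland plantings received compound either on sown seed or on 1- to 4-leaf seedlings. All were kept 13–15 days in a greenhouse and scored visually, 0–100, relative to untreated plants.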

giant foxtail = assay: Test B pre-/postemergence herbicide test; assay type: in vivo, Setaria faberi; conditions: for Foxtail, Giant plant response rating: postemergence
Summary of the method: as §1

blackgrass = assay: Test B postemergence herbicide test; assay type: in vivo, Alopecurus myosuroides; conditions: postemergence, visual rating, scale 0 (no effect) to 100 (complete control)
Summary of the method: (§2)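 After treating 2-leaf paddy plants or 2–18 cm postemergence plants (1 to 4 leaves) with formulated chemical, researchers kept them in a greenhouse for 13–15 days. Effects were judged visually versus controls: 0 indicates none, 100 total control.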

Surinam grass = assay: Test B pre-/postemergence herbicide test; assay type: in vivo, Urochloa decumbens; conditions: for Surinam Grass plant response rating: postemergence
Summary of the method: as §1

corn = assay: Test B pre-/postemergence herbicide test; assay type: in vivo, Zea mays; conditions: for Corn plant response rating: postemergence
Summary of the method: as §1

[2] = tested on: small flower umbrella sedge; assay: Test B flooded paddy test; assay type: in vivo, Cyperus difformis; conditions: 1000 g ai/ha, scale 0 to 100 (0 no effect, 100 complete control)
Summary of the method: as §2

large crabgrass = assay: Test B pre-/postemergence herbicide test; assay type: in vivo, Digitaria sanguinalis; conditions: for Crabgrass, Large plant response rating: postemergence
Summary of the method: as §1

pigweed = assay: Test B pre-/postemergence herbicide test; assay type: in vivo, Amaranthus retroflexus; conditions: for Pigweed plant response rating: postemergence
Summary of the method: as §1

ducksalad [3] = assay: Test B flooded paddy test; assay type: in vivo, Heteranthera limosa; conditions: 1000 g ai/ha, scale 0 to 100 (0 no effect, 100 complete control)
Summary of the method: as §2

rice [4] = assay: Test B pre-/postemergence herbicide test; assay type: in vivo, Oryza sativa; conditions: 0 = no effect, 100 = complete control, preemergence
Summary of the method: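 Evaluation is visual, comparing treated with control plants on a scale where 0 means no effect and 100 means full control. Treatments were preemergence, or postemergence on seedlings 2–18 cm tall, and held 13–15 days in the greenhouse.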

wild oat = assay: Test B postemergence herbicide test; assay type: in vivo, Avena fatua; conditions: postemergence
Summary of the method: (§3)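 Treated at 2-leaf (paddy) or 1–4-leaf, 2–18 cm (postemergence); greenhouse 13–15 d; visual score vs control, 0 none to 100 complete control; dash = not tested.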

barnyardgrass [5] = assay: Test B flooded paddy test; assay type: in vivo, Echinochloa crus-galli; conditions: 1000 g ai/ha, scale 0 to 100 (0 no effect, 100 complete control)
Summary of the method: as §2

wheat = assay: Test B postemergence herbicide test; assay type: in vivo, Triticum aestivum; set-up: key to Wheat plant response rating: 0 = no effect, 100 = complete control; conditions: postemergence
Summary of the method: as §3

cocklebur = assay: Test B pre-/postemergence herbicide test; assay type: in vivo, Xanthium strumarium; conditions: for Cocklebur plant response rating: postemergence, scale 0 (no effect) to 100 (complete control)
Summary of the method: as §1

barnyardgrass [6] = assay: Test C flooded paddy test; assay type: in vivo, Echinochloa crus-galli
Summary of the method: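 After a postemergence application at 1 to 4 leaves (plants 2–18 cm high), or at 2 leaves for barnyardgrass in flooded paddy, plants stayed in the greenhouse for 12 to 14 days. Damage was then judged visually relative to control plants, with 100 indicating complete control.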

lambsquarters = assay: Test B pre-/postemergence herbicide test; assay type: in vivo, Chenopodium album; conditions: for Lambsquarters plant response rating: postemergence
Summary of the method: as §1

morningglory = assay: Test B pre-/postemergence herbicide test; assay type: in vivo, Ipomoea coccinea; conditions: for Morningglory plant response rating: postemergence
Summary of the method: as §1

barnyardgrass [7] = assay: Test B pre-/postemergence herbicide test; assay type: in vivo, Echinochloa crus-galli; conditions: for Barnyardgrass plant response rating: postemergence, scale 0 (no effect) to 100 (complete control)
Summary of the method: as §1

rice [8] = assay: Test B flooded paddy test; assay type: in vivo, Oryza sativa; conditions: 1000 g ai/ha, scale 0 to 100 (0 no effect, 100 complete control)
Summary of the method: as §2

ducksalad [9] = assay: Test C flooded paddy test; assay type: in vivo, Heteranthera limosa
[10] = tested on: smallflower umbrella sedge; assay: Test C flooded paddy test; assay type: in vivo, Cyperus difformis
[11] = 62 g ai/ha, scale 0 to 100 (0 no effect, 100 complete control)
[12] = 125 g ai/ha, scale 0 to 100 (0 no effect, 100 complete control)
[13] = 250 g ai/ha, scale of 0 to 100, 0 is no effect, 100 is complete control
[14] = 500 g ai/ha, visual rating after 12 to 14 days, scale 0 to 100 (0 no effect, 100 complete control)
[15] = 125 g ai/ha, 0 = no effect, 100 = complete control, preemergence
[16] = 500 g ai/ha, visual rating, 0 = no effect, 100 = complete control, preemergence
[17] = 125 g ai/ha, visual rating, scale 0 (no effect) to 100 (complete control)
[18] = 500 g ai/ha, scale 0 to 100, 0 is no effect, 100 is complete control

CCn1nc(C(C)(C)C)cc1C(=O)Nc1cccc(C(=O)N2CCCC2)n1 [Compound 245]
45: Barnyardgrass plant response rating (barnyardgrass [6]; [13])
40: Velvetleaf plant response rating (0 to 100 scale) (velvetleaf; [15]) | Surinam Grass plant response rating (0 to 100 scale) (Surinam grass; [15]) | Cocklebur plant response rating (cocklebur; 125 g ai/ha, visual rating) | Barnyardgrass plant response rating (barnyardgrass [7]; 125 g ai/ha, visual rating)
25: Rice plant response rating (rice [1]; [11])
55: Sedge, Umbrella plant response rating [10, 11]
75: Ducksalad plant response rating (ducksalad [9]; [12]) | Ducksalad plant response rating (ducksalad [9]; [13]) | Plant response rating, Ducksalad (ducksalad [9]; [14])
80: Velvetleaf plant response rating (velvetleaf; [18]) | Plant response rating, Surinam Grass (Surinam grass; [16]) | Pigweed plant response rating (pigweed; [18]) | Ducksalad plant response rating (ducksalad [3]) | Cocklebur plant response rating (cocklebur; 500 g ai/ha, visual rating) | Lambsquarters plant response rating (lambsquarters; [17]) | Rice plant response rating (rice [8])
50: Sedge, Umbrella plant response rating [2] | Crabgrass, Large plant response rating (large crabgrass; [18]) | Plant response rating, Rice (rice [4]; 500 g ai/ha, visual rating)
10: Plant response rating, Corn (corn; [16]) | Corn plant response rating (corn; [17]) | Crabgrass, Large plant response rating (large crabgrass; [17]) | Wheat plant response rating (wheat; [17]) | Morningglory plant response rating (0 to 100 scale) (morningglory; [15]) | Morningglory plant response rating (morningglory; [17])
90: Plant response rating, Velvetleaf (velvetleaf; [16]) | Plant response rating, Foxtail, Giant (giant foxtail; [16]) | Barnyardgrass plant response rating (barnyardgrass [5]) | Lambsquarters plant response rating (0 to 100 scale) (lambsquarters; [15]) | Lambsquarters plant response rating (lambsquarters; [18])
30: Foxtail, Giant plant response rating (giant foxtail; [17]) | Surinam Grass plant response rating (Surinam grass; [17]) | Corn plant response rating (corn; [18]) | Oat, Wild plant response rating (wild oat; [18])
0: Blackgrass plant response rating (blackgrass; 125 g ai/ha) | Blackgrass plant response rating (blackgrass; 500 g ai/ha) | Corn plant response rating (0 to 100 scale) (corn; [15]) | Cocklebur plant response rating (0 to 100 scale) (cocklebur; [15]) | Plant response rating, Cocklebur (cocklebur; [16]) | Barnyardgrass plant response rating (barnyardgrass [6]; [11])
60: Foxtail, Giant plant response rating (0 to 100 scale) (giant foxtail; [15]) | Foxtail, Giant plant response rating (giant foxtail; [18]) | Surinam Grass plant response rating (Surinam grass; [18]) | Crabgrass, Large plant response rating (0 to 100 scale) (large crabgrass; [15]) | Pigweed plant response rating (pigweed; [17]) | Morningglory plant response rating (morningglory; [18]) | Ducksalad plant response rating (ducksalad [9]; [11])
20: Rice plant response rating (0 to 100 scale) (rice [4]; 125 g ai/ha) | Oat, Wild plant response rating (wild oat; [17]) | Wheat plant response rating (wheat; [18]) | Plant response rating, Morningglory (morningglory; [16])
35: Barnyardgrass plant response rating (barnyardgrass [6]; [12])
70: Rice plant response rating (rice [1]; [13]) | Plant response rating, Rice (rice [1]; [14]) | Velvetleaf plant response rating (velvetleaf; [17]) | Plant response rating, Barnyardgrass (barnyardgrass [6]; [14]) | Barnyardgrass plant response rating (0 to 100 scale) (barnyardgrass [7]; [15]) | Barnyardgrass plant response rating (barnyardgrass [7]; 500 g ai/ha, visual rating) | Sedge, Umbrella plant response rating [10, 12] | Sedge, Umbrella plant response rating [10, 13] | Plant response rating, Sedge, Umbrella [10, 14]
100: Plant response rating, Crabgrass, Large (large crabgrass; [16]) | Pigweed plant response rating (0 to 100 scale) (pigweed; [15]) | Plant response rating, Pigweed (pigweed; [16]) | Plant response rating, Lambsquarters (lambsquarters; [16]) | Plant response rating, Barnyardgrass (barnyardgrass [7]; [16])
65: Rice plant response rating (rice [1]; [12])
